Counter-ions that a name gives are not always drawn.
Columns and labels:
Format in all cases: cell-based, Staphylococcus aureus
[1] = system: MRSA strain USA300 Pvra-lux; settings: compound 10 μM + oxacillin 2 μg/mL; for RG avg (relative growth): ratio of OD600 to oxacillin alone, four runs
Method: (§1) In the secondary screen each microtiter plate contained either cells in TSB alone (16 replicates), cells with oxacillin (2 μg/mL, 31 replicates), or cells with test compound and oxacillin (2 μg/mL, 49 wells). Each compound was assayed in four separate biological replicates.
(§2) All compounds classified in the primary screen as synergists that were vraSR-stimulating or -repressing (as shown in Table 8) were screened in a secondary assay for their effects on both growth and Pvra::lux induction by oxacillin. […] Each compound was tested four separate times at 10 μM in the presence of oxacillin (2 μg/mL) and luminescence was measured every 15 minutes. Relative growth (RG) and relative luminescence (RL) was calculated as the ratio between the OD600 or max LU value in the presence of compound and oxacillin over the average from pooled control values obtained from the same plate. […] Compounds that produced an average RG (ratio of the OD600 of the culture grown with test compound combined with oxacillin to that of oxacillin alone) of <0.8 were classified as oxacillin synergists or potentiators. The relative luminescence (RL) was the ratio of the LU produced in the presence of the test compound combined with oxacillin to that produced by oxacillin alone. Compounds were classified as “vraSR repressors” (mean RL of <0.8), “vraSR stimulators”, (mean RL>1.2), and “vraSR neutral” (mean RL between 0.80-1.2). […] In contrast, 34 compounds had no effect on growth in the presence of oxacillin (“un” in the OD600 category). Among the oxacillin potentiators, there were 2 vraSR stimulators, 3 vraSR neutral compounds and 10 vraSR repressors.

[2] = system: vraSR transcription (Pvra::lux); settings: compound 10 μM + oxacillin 2 μg/mL; for RL avg (relative luminescence): ratio of LU to oxacillin alone, four runs
Method: as §1, §2

vraR transcription = assay: Tertiary screen: qRT-PCR of vraR in strain 923; settings: for Effect on vraSR Transcription: Compound alone: qRT-PCR of vraR, compound 10 μM, no oxacillin

| Compound | OD600 category [1] | RG avg (relative growth) [1] | Effect on vraSR transcription [2] | RL avg (relative luminescence) [2] | Effect on vraSR Transcription: Compound alone (vraR transcription) | classification of lux screen result against qRT-PCR (true/false repressor or stimulator) (vraR transcription; in the presence of oxacillin) |
| --- | --- | --- | --- | --- | --- | --- |
| CCCCc1oc2ccccc2c1C(=O)c1cc(I)c(OCCN(CC)CC)c(I)c1 [Amiodarone hydrochloride] | inhibited (of <0.8 were classified as oxacillin synergists or potentiators) | 0.84 | stimulate (“vraSR stimulators”, (mean RL>1.2)) | 0.68 | stimulate |  |
| C#C[C@]1(O)CC[C@H]2[C@@H]3CCC4=CCCC[C@@H]4[C@H]3CC[C@@]21C [Lynestrenol] | inhibited (of <0.8 were classified as oxacillin synergists or potentiators) | 0.47 | repress (“vraSR repressors” (mean RL of <0.8)) | 0.26 | stimulate |  |
| OC(Cn1cncn1)(Cn1cncn1)c1ccc(F)cc1F [fluconazole] |  |  |  |  |  | false stimulator |
| O=c1[nH]c2ccccc2n1CCCN1CCC(n2c(=O)[nH]c3cc(Cl)ccc32)CC1 [Domperidone] | un (no effect on growth in the presence of oxacillin (“un” in the OD600 category)) | 0.91 | neutral (“vraSR neutral” (mean RL between 0.80-1.2)) | 0.85 |  |  |
| Trimeprazine tartrate | un (no effect on growth in the presence of oxacillin (“un” in the OD600 category)) | 1.04 | neutral (“vraSR neutral” (mean RL between 0.80-1.2)) | 0.96 |  |  |
| CN[C@@H]1[C@H](O)[C@H](NC)[C@H]2O[C@@]3(O)C(=O)C[C@@H](C)O[C@H]3O[C@@H]2[C@H]1O [Spectinomycin dihydrochloride] | un (no effect on growth in the presence of oxacillin (“un” in the OD600 category)) | 0.89 | neutral (“vraSR neutral” (mean RL between 0.80-1.2)) | 0.77 |  |  |
| C=C1CC[C@H](O)C/C1=C/C=C1\CCC[C@]2(C)[C@@H]([C@H](C)/C=C/[C@H](C)C(C)C)CC[C@@H]12 [Calciferol] | un (no effect on growth in the presence of oxacillin (“un” in the OD600 category)) | 0.96 | neutral (“vraSR neutral” (mean RL between 0.80-1.2)) | 0.88 |  |  |
| NS(=O)(=O)c1cc2c(cc1Cl)NC(C(Cl)Cl)NS2(=O)=O (stereo not shown) [Trichlormethiazide] | un (no effect on growth in the presence of oxacillin (“un” in the OD600 category)) | 1.10 | neutral (“vraSR neutral” (mean RL between 0.80-1.2)) | 1.06 |  |  |
| CC(C(=O)O)c1ccc(N2Cc3ccccc3C2=O)cc1 (stereo not shown) [Indoprofen] | un (no effect on growth in the presence of oxacillin (“un” in the OD600 category)) | 0.98 | neutral (“vraSR neutral” (mean RL between 0.80-1.2)) | 0.87 |  |  |
| CN(C)CCOC(=O)COc1ccc(Cl)cc1 [Meclofenoxate hydrochloride] | un (no effect on growth in the presence of oxacillin (“un” in the OD600 category)) | 1.08 | neutral (“vraSR neutral” (mean RL between 0.80-1.2)) | 1.08 |  |  |
| C[n+]1cc2c3c(ccc2c2ccc4cc5c(cc4c21)OCO5)OCO3 [Sanguinarine] | inhibited (of <0.8 were classified as oxacillin synergists or potentiators) | 0.78 | repress (“vraSR repressors” (mean RL of <0.8)) | 0.47 |  |  |
| O=C(c1ccc(OCCN2CCCCC2)cc1)c1c(-c2ccc(O)cc2)sc2cc(O)ccc12 [Raloxifene hydrochloride] | un (no effect on growth in the presence of oxacillin (“un” in the OD600 category)) | 0.97 | neutral (“vraSR neutral” (mean RL between 0.80-1.2)) | 0.85 |  |  |
| CCC(=O)OCC(=O)[C@@]1(OC(=O)CC)[C@@H](C)C[C@H]2[C@@H]3CCC4=CC(=O)C=C[C@]4(C)[C@@]3(Cl)[C@@H](O)C[C@@]21C [Beclomethasone dipropionate] | un (no effect on growth in the presence of oxacillin (“un” in the OD600 category)) | 0.96 | neutral (“vraSR neutral” (mean RL between 0.80-1.2)) | 0.96 |  |  |
| O=C1OC(CN2CCOCC2)CN1/N=C/c1ccc([N+](=O)[O-])o1 (stereo not shown) [Furaltadone hydrochloride] | un (no effect on growth in the presence of oxacillin (“un” in the OD600 category)) | 1.00 | repress (“vraSR repressors” (mean RL of <0.8)) | 1.01 |  |  |
| COc1cccc2c1C(=O)c1c(O)c3c(c(O)c1C2=O)C[C@@](O)(C(=O)CO)C[C@@H]3O[C@H]1C[C@H](N)[C@H](O)[C@H](C)O1 [Doxorubicin hydrochloride] | un (no effect on growth in the presence of oxacillin (“un” in the OD600 category)) | 0.88 | repress (“vraSR repressors” (mean RL of <0.8)) | 0.83 |  |  |
| C[C@]12CC[C@H](O)C[C@H]1CC[C@@H]1[C@@H]2CC[C@]2(C)[C@@H](C3=CC(=O)OC3)CC[C@]12O [Digitoxigenin] | un (no effect on growth in the presence of oxacillin (“un” in the OD600 category)) | 1.01 | neutral (“vraSR neutral” (mean RL between 0.80-1.2)) | 0.97 |  |  |
| NS(=O)(=O)c1cc2c(cc1Cl)N=C(CSCc1ccccc1)NS2(=O)=O [Benzthiazide] | un (no effect on growth in the presence of oxacillin (“un” in the OD600 category)) | 1.01 | neutral (“vraSR neutral” (mean RL between 0.80-1.2)) | 0.95 |  |  |

Source: patent US20150283120A1, “ANTIBIOTIC METHODS AND COMPOSITIONS FOR BACTERIA INFECTIONS” (THE UNIVERSITY OF CHICAGO, priority 2012, published 2015)
